# Laboratory results from patent US6914045B2, “Glycopeptide antibiotics” (Wyeth Holdings Corporation, priority 2001, dated 2005).
# How the values were obtained:
# Assay in all cases: in vitro antibacterial evaluation, MIC by broth dilution
# Format in all cases: cell-based
# Streptococcus sp. = conditions: broth dilution, 18 hours at 35° C.; for MIC Streptococcus pneumoniae (ATCC 6301): strain ATCC 6301; for MIC Streptococcus pneumoniae (GC 1894): strain GC 1894; for MIC Streptococcus pyogenes (GC 4563): strain GC 4563; for MIC Streptococcus agalactiae (GC 4564): strain GC 4564; for MIC Streptococcus pneumoniae (GC 4565): strain GC 4565
# In short: (§1)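 Following National Committee for Clinical Laboratory Standards recommendations (M7-A2), susceptibility was measured by dilution in Muller-Hinton II […]. Bacteria were seeded at 5×10^5 CFU/mL against compound concentrations from 64 down to 0.06 μg/mL.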
# Enterococcus sp. = conditions: broth dilution, 18 hours at 35° C.; for MIC Enterococcus faecalis (ATCC 29212): strain ATCC 29212; for MIC Enterococcus faecalis (GC 2242): strain GC 2242; for MIC Enterococcus faecium (GC 2243): strain GC 2243; for MIC Enterococcus faecalis (GC 2691): strain GC 2691; for MIC Enterococcus faecalis (GC 3059): strain GC 3059; for MIC Enterococcus faecalis (GC 4552): strain GC 4552; for MIC Enterococcus faecalis (GC 4553): strain GC 4553; for MIC Enterococcus faecalis (GC 4554): strain GC 4554; for MIC Enterococcus faecium (GC 4556): strain GC 4556; for MIC Enterococcus faecium (GC 4557): strain GC 4557; for MIC Enterococcus avium (GC 4558): strain GC 4558; for MIC Enterococcus faecalis (GC 6189): strain GC 6189
# In short: as §1
# Escherichia coli = test system: Escherichia coli
# In short: as §1
# Staphylococcus sp. = conditions: broth dilution, 18 hours at 35° C.; for MIC Staphylococcus aureus (GC 1131): strain GC 1131
# In short: as §1
compound,measurement,setting,value
CC(C)=CCOc1cccc(C2OCC3OC(OC4C(CO)OC(Oc5ccc(CC6NC(=O)C(C(C)c7ccccc7)NC(=O)CNC(=O)C(CO)NC(=O)C(C(O)C7CNC(=N)N7C7OC(CO)C(O)C(O)C7O)NC(=O)C(C(O)C7CNC(=N)N7)NC6=O)cc5)C(O)C4O)C(O)C(O)C3O2)c1 (stereo not drawn) [Example 165],MIC Streptococcus pneumoniae (ATCC 6301),Streptococcus sp.; inoculum 5×10^5 CFU/mL,0.12 µg/mL
same,MIC Streptococcus pneumoniae (GC 1894),Streptococcus sp.; inoculum 5×10^5 CFU/mL,<0.06 µg/mL
same,MIC Streptococcus pyogenes (GC 4563),Streptococcus sp.; inoculum 5×10^5 CFU/mL,0.12 µg/mL
same,MIC Streptococcus agalactiae (GC 4564),Streptococcus sp.; inoculum 5×10^5 CFU/mL,1 µg/mL
same,MIC Streptococcus pneumoniae (GC 4565),Streptococcus sp.; inoculum 5×10^5 CFU/mL,0.12 µg/mL
same,MIC Streptococcus pneumoniae (ATCC 6301),Streptococcus sp.,0.12 µg/mL
same,MIC Streptococcus pneumoniae (GC 1894),Streptococcus sp.,<0.06 µg/mL
same,MIC Streptococcus pyogenes (GC 4563),Streptococcus sp.,0.12 µg/mL
same,MIC Streptococcus agalactiae (GC 4564),Streptococcus sp.,1 µg/mL
same,MIC Streptococcus pneumoniae (GC 4565),Streptococcus sp.,0.12 µg/mL
same,MIC Enterococcus faecalis (ATCC 29212),Enterococcus sp.; inoculum 5×10^5 CFU/mL,16 µg/mL
same,MIC Enterococcus faecalis (GC 2242),Enterococcus sp.; inoculum 5×10^5 CFU/mL,16 µg/mL
same,MIC Enterococcus faecium (GC 2243),Enterococcus sp.; inoculum 5×10^5 CFU/mL,16 µg/mL
same,MIC Enterococcus faecalis (GC 2691),Enterococcus sp.; inoculum 5×10^5 CFU/mL,16 µg/mL
same,MIC Enterococcus faecalis (GC 3059),Enterococcus sp.; inoculum 5×10^5 CFU/mL,16 µg/mL
same,MIC Enterococcus faecalis (GC 4552),Enterococcus sp.; inoculum 5×10^5 CFU/mL,16 µg/mL
same,MIC Enterococcus faecalis (GC 4553),Enterococcus sp.; inoculum 5×10^5 CFU/mL,16 µg/mL
same,MIC Enterococcus faecalis (GC 4554),Enterococcus sp.; inoculum 5×10^5 CFU/mL,32 µg/mL
same,MIC Enterococcus faecium (GC 4556),Enterococcus sp.; inoculum 5×10^5 CFU/mL,16 µg/mL
same,MIC Enterococcus faecium (GC 4557),Enterococcus sp.; inoculum 5×10^5 CFU/mL,16 µg/mL
same,MIC Enterococcus avium (GC 4558),Enterococcus sp.; inoculum 5×10^5 CFU/mL,16 µg/mL
same,MIC Enterococcus faecalis (GC 6189),Enterococcus sp.; inoculum 5×10^5 CFU/mL,16 µg/mL
same,MIC Enterococcus faecalis (ATCC 29212),Enterococcus sp.,16 µg/mL
same,MIC Enterococcus faecalis (GC 2242),Enterococcus sp.,16 µg/mL
same,MIC Enterococcus faecium (GC 2243),Enterococcus sp.,16 µg/mL
same,MIC Enterococcus faecalis (GC 2691),Enterococcus sp.,16 µg/mL
same,MIC Enterococcus faecalis (GC 3059),Enterococcus sp.,16 µg/mL
same,MIC Enterococcus faecalis (GC 4552),Enterococcus sp.,16 µg/mL
same,MIC Enterococcus faecalis (GC 4553),Enterococcus sp.,16 µg/mL
same,MIC Enterococcus faecalis (GC 4554),Enterococcus sp.,32 µg/mL
same,MIC Enterococcus faecium (GC 4556),Enterococcus sp.,16 µg/mL
same,MIC Enterococcus faecium (GC 4557),Enterococcus sp.,16 µg/mL
same,MIC Enterococcus avium (GC 4558),Enterococcus sp.,16 µg/mL
same,MIC Enterococcus faecalis (GC 6189),Enterococcus sp.,16 µg/mL
same,MIC Escherichia coli (ATCC 25922),"Escherichia coli; strain ATCC 25922, 18 hours at 35° C.",>64 µg/mL
same,MIC Escherichia coli (GC 4559),"Escherichia coli; strain GC 4559, 18 hours at 35° C.",>64 µg/mL
same,MIC Escherichia coli (GC 4560),"Escherichia coli; strain GC 4560, 18 hours at 35° C.",16 µg/mL
same,MIC Staphylococcus aureus (GC 1131),Staphylococcus sp.; inoculum 5×10^5 CFU/mL,16 µg/mL
same,MIC Staphylococcus aureus (ATCC 29213),Staphylococcus sp.; strain ATCC 29213,16 µg/mL
same,MIC Staphylococcus aureus (GC 1131),Staphylococcus sp.,16 µg/mL
same,MIC Staphylococcus aureus (GC 3051),Staphylococcus sp.; strain GC 3051,32 µg/mL
same,MIC Staphylococcus aureus (GC 3053),Staphylococcus sp.; strain GC 3053,16 µg/mL
same,MIC Staphylococcus aureus (GC 4541),Staphylococcus sp.; strain GC 4541,16 µg/mL
same,MIC Staphylococcus aureus (GC 4542),Staphylococcus sp.; strain GC 4542,16 µg/mL
same,MIC Staphylococcus aureus-SMITH (GC 4543),Staphylococcus sp.; strain GC 4543,16 µg/mL
same,MIC Staphylococcus aureus (GC 4544),Staphylococcus sp.; strain GC 4544,16 µg/mL
same,MIC Staphylococcus aureus (GC 4545),Staphylococcus sp.; strain GC 4545,16 µg/mL
same,MIC Staphylococcus haemolyticus (GC 4546),Staphylococcus sp.; strain GC 4546,16 µg/mL
same,MIC Coagulase Negative Staphylococcus (GC 4547),Staphylococcus sp.; strain GC 4547,16 µg/mL
same,MIC Coagulase Negative Staphylococcus (GC 4548),Staphylococcus sp.; strain GC 4548,8 µg/mL
same,MIC Coagulase Negative Staphylococcus (GC 4549),Staphylococcus sp.; strain GC 4549,8 µg/mL
same,MIC Coagulase Negative Staphylococcus (GC 4551),Staphylococcus sp.; strain GC 4551,16 µg/mL
same,MIC Coagulase Negative Staphylococcus (GC 6257),Staphylococcus sp.; strain GC 6257,8 µg/mL
same,MIC Staphylococcus aureus-SMITH (GC 4543),Staphylococcus sp.; strain SMITH GC 4543,16 µg/mL
